Measurements from patent US9302999B2, “Substituted triazoles as herbicides” (E. I. DU PONT DE NEMOURS AND COMPANY, priority 2012, dated 2016).

Columns and labels:
Format in all cases: in vivo
[1] = system: winter wheat (Triticum aestivum); experiment: Test C pre-/postemergence: winter wheat
In short: (§1)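 Visual injury scored 0–100 (100 = complete control) against untreated controls after 13–15 greenhouse days. Surfactant-containing solvent formulations applied either to soil after sowing (loam/sand) or over 1- to 4-leaf plants, 2–18 cm tall.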

[2] = system: velvetleaf (Abutilon theophrasti); experiment: Test C pre-/postemergence: velvetleaf
In short: as §1

corn (Zea mays) = experiment: Test C pre-/postemergence: corn
In short: as §1

[3] = system: foxtail, giant (giant foxtail, Setaria faberii); experiment: Test C pre-/postemergence: foxtail, giant
In short: as §1

[4] = system: blackgrass (Alopecurus myosuroides); experiment: Test C pre-/postemergence: blackgrass
In short: as §1

rice (Oryza sativa) = experiment: Test B flooded paddy: rice; conditions: Flood; 250 g ai/ha; applied to paddy water at 2-leaf stage; visually evaluated after 13 to 15 days
In short: (§2)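 At two leaves, seedlings received the test compound via the paddy water, pots having been flooded 3 cm over the soil surface and kept so. Greenhouse-held for 13 to 15 days, then judged by eye against controls on a scale running 0 (no effect) to 100 (complete control).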

[5] = system: johnsongrass (Sorghum halepense); experiment: Test C pre-/postemergence: johnsongrass
In short: as §1

kochia (Kochia scoparia) = experiment: Test C pre-/postemergence: kochia; conditions: Postemergence
In short: as §1

soybean (Glycine max) = experiment: Test C pre-/postemergence: soybean
In short: as §1

[6] = system: pigweed (Amaranthus retroflexus); experiment: Test C pre-/postemergence: pigweed
In short: as §1

[7] = system: barnyardgrass (Echinochloa crus-galli); experiment: Test B flooded paddy: barnyardgrass; conditions: Flood; 250 g ai/ha; applied to paddy water at 2-leaf stage; visually evaluated after 13 to 15 days
In short: as §2

[8] = Postemergence, 31 g ai/ha, scale 0 to 100 (0 no effect, 100 complete control)
[9] = Postemergence, 62 g ai/ha, scale 0 to 100 (0 no effect, 100 complete control)
[10] = Postemergence, 125 g ai/ha, scale 0 to 100, 0 no effect, 100 complete control
[11] = Postemergence, 250 g ai/ha, scale 0 to 100
[12] = Preemergence, 62 g ai/ha, scale of 0 to 100, 0 is no effect, 100 is complete control
[13] = Preemergence, 125 g ai/ha, scale 0 to 100, 0 no effect, 100 complete control
[14] = Preemergence, 250 g ai/ha, scale 0 to 100, 0 no effect, 100 complete control
[15] = Preemergence, 31 g ai/ha, scale of 0 to 100, 0 is no effect, 100 is complete control

CCc1nn(-c2ccc(C(F)(F)F)cc2)nc1Cc1ccnc(C(F)(F)F)c1 [Compound 155]
5: Plant response rating, Wheat [1, 12] | Plant response rating, Corn (corn (Zea mays); [15]) | Plant response rating, Corn (corn (Zea mays); [12])
75: Plant response rating, Velvetleaf [2, 10] | Plant response rating, Foxtail, Giant [3, 10] | Plant response rating, Soybean (soybean (Glycine max); [9]) | Plant response rating, Barnyardgrass (0 to 100 scale, 0 is no effect, 100 is complete control) [7]
50: Plant response rating, Velvetleaf [2, 8] | Plant response rating, Rice (0 to 100 scale, 0 is no effect, 100 is complete control) (rice (Oryza sativa)) | Plant response rating, Soybean (soybean (Glycine max); [8])
35: Plant response rating, Wheat [1, 10] | Plant response rating, Wheat [1, 14] | Plant response rating, Soybean (soybean (Glycine max); [12]) | Plant response rating, Soybean (soybean (Glycine max); [13])
45: Plant response rating, Corn (corn (Zea mays); [10]) | Plant response rating, Corn (corn (Zea mays); [11]) | Plant response rating, Corn (corn (Zea mays); [14]) | Plant response rating, Foxtail, Giant [3, 9]
40: Plant response rating, Wheat [1, 11] | Plant response rating, Blackgrass [4, 8] | Plant response rating, Soybean (soybean (Glycine max); [14])
95: Plant response rating, Johnsongrass [5, 14] | Plant response rating, Kochia (kochia (Kochia scoparia); 125 g ai/ha, scale 0 to 100, 0 no effect, 100 complete control) | Plant response rating, Kochia (kochia (Kochia scoparia); 250 g ai/ha, scale 0 to 100)
30: Plant response rating, Wheat [1, 9] | Plant response rating, Velvetleaf [2, 15]
60: Plant response rating, Velvetleaf [2, 9]
20: Plant response rating, Johnsongrass [5, 8]
100: Plant response rating, Velvetleaf [2, 14] | Plant response rating, Foxtail, Giant [3, 11] | Plant response rating, Foxtail, Giant [3, 15] | Plant response rating, Foxtail, Giant [3, 12] | Plant response rating, Foxtail, Giant [3, 13] | Plant response rating, Foxtail, Giant [3, 14] | Plant response rating, Pigweed [6, 11] | Plant response rating, Pigweed [6, 15] | Plant response rating, Pigweed [6, 12] | Plant response rating, Pigweed [6, 13] | Plant response rating, Pigweed [6, 14]
98: Plant response rating, Johnsongrass [5, 10] | Plant response rating, Johnsongrass [5, 11] | Plant response rating, Pigweed [6, 10]
85: Plant response rating, Velvetleaf [2, 13] | Plant response rating, Blackgrass [4, 10]
0: Plant response rating, Soybean (soybean (Glycine max); [15])
10: Plant response rating, Wheat [1, 13] | Plant response rating, Corn (corn (Zea mays); [13])
70: Plant response rating, Blackgrass [4, 9]
25: Plant response rating, Corn (corn (Zea mays); [8]) | Plant response rating, Corn (corn (Zea mays); [9])
80: Plant response rating, Velvetleaf [2, 11] | Plant response rating, Velvetleaf [2, 12] | Plant response rating, Johnsongrass [5, 9] | Plant response rating, Johnsongrass [5, 15] | Plant response rating, Soybean (soybean (Glycine max); [10]) | Plant response rating, Soybean (soybean (Glycine max); [11])
90: Plant response rating, Blackgrass [4, 11] | Plant response rating, Blackgrass [4, 15] | Plant response rating, Blackgrass [4, 12] | Plant response rating, Blackgrass [4, 13] | Plant response rating, Blackgrass [4, 14] | Plant response rating, Johnsongrass [5, 12] | Plant response rating, Johnsongrass [5, 13] | Plant response rating, Kochia (kochia (Kochia scoparia); 31 g ai/ha, scale 0 to 100 (0 no effect, 100 complete control)) | Plant response rating, Kochia (kochia (Kochia scoparia); 62 g ai/ha, scale 0 to 100 (0 no effect, 100 complete control)) | Plant response rating, Pigweed [6, 8] | Plant response rating, Pigweed [6, 9]
15: Plant response rating, Wheat [1, 8] | Plant response rating, Foxtail, Giant [3, 8]
